{
  "source": "the supplement of paper PMC10627819",
  "assay_in_all_cases": "fitness (endpoint OD595 vs no drug) (fraction); higher = more growth",
  "key": {"[1]": {"test_system": "S. aureus DSM 20231", "how_it_was_run": "(§1)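 Bacterial fitness was scored as optical density at the stationary-phase transition relative to the robust mean of no-drug control wells. Scores are capped at 1. The growth data were OD595 readings every 30 min for 14 h at 37 °C, background-subtracted against the first reading, from 384-well plates inoculated at OD595 0.01 in TSB, LB Lennox or CY.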"}, "[2]": {"test_system": "S. aureus Newman", "how_it_was_run": "as §1"}, "[3]": {"test_system": "S. pneumoniae D39V", "how_it_was_run": "as §1"}, "[4]": {"test_system": "B. subtilis 168", "how_it_was_run": "as §1"}, "[5]": {"conditions": "first compound 1 µg/mL, partner 0.15 µg/mL"}, "[6]": {"conditions": "first compound 1 µg/mL, partner 0.3 µg/mL"}, "[7]": {"conditions": "first compound 1 µg/mL, partner 0.6 µg/mL"}, "[8]": {"conditions": "first compound 2 µg/mL, partner 0.15 µg/mL"}, "[9]": {"conditions": "first compound 2 µg/mL, partner 0.3 µg/mL"}, "[10]": {"conditions": "first compound 2 µg/mL, partner 0.6 µg/mL"}, "[11]": {"conditions": "first compound 4 µg/mL, partner 0.15 µg/mL"}, "[12]": {"conditions": "first compound 4 µg/mL, partner 0.3 µg/mL"}, "[13]": {"conditions": "first compound 4 µg/mL, partner 0.6 µg/mL"}},
  "data": [
    {"smiles": "Cc1cc(NS(=O)(=O)c2ccc(N)cc2)no1", "note": "[Sulfamethoxazol] + CN(N=O)C(=O)N[C@@H](C=O)[C@@H](O)[C@H](O)[C@H](O)CO [Streptozotocin]", "values": [
      {"measurement": "fitness", "setting": "[1]; [5]", "value": 0.794},
      {"measurement": "fitness", "setting": "[1]; [6]", "value": 0.727},
      {"measurement": "fitness", "setting": "[1]; [7]", "value": 0.632},
      {"measurement": "fitness", "setting": "[1]; [8]", "value": 0.861},
      {"measurement": "fitness", "setting": "[1]; [9]", "value": 0.735},
      {"measurement": "fitness", "setting": "[1]; [10]", "value": 0.689},
      {"measurement": "fitness", "setting": "[1]; [11]", "value": 0.857},
      {"measurement": "fitness", "setting": "[1]; [12]", "value": 0.815},
      {"measurement": "fitness", "setting": "[1]; [13]", "value": 0.689},
      {"measurement": "fitness", "setting": "[2]; [5]", "value": 0.891},
      {"measurement": "fitness", "setting": "[2]; [6]", "value": 0.754},
      {"measurement": "fitness", "setting": "[2]; [7]", "value": 0.605},
      {"measurement": "fitness", "setting": "[2]; [8]", "value": 0.868},
      {"measurement": "fitness", "setting": "[2]; [9]", "value": 0.789},
      {"measurement": "fitness", "setting": "[2]; [10]", "value": 0.587},
      {"measurement": "fitness", "setting": "[2]; [11]", "value": 0.88},
      {"measurement": "fitness", "setting": "[2]; [12]", "value": 0.798},
      {"measurement": "fitness", "setting": "[2]; [13]", "value": 0.62},
      {"measurement": "fitness", "setting": "[2]; first compound 8 µg/mL, partner 0.15 µg/mL, one replicate", "value": 0.854},
      {"measurement": "fitness", "setting": "[2]; first compound 8 µg/mL, partner 0.3 µg/mL, one replicate", "value": 0.804},
      {"measurement": "fitness", "setting": "[2]; first compound 8 µg/mL, partner 0.6 µg/mL, one replicate", "value": 0.751},
      {"measurement": "fitness", "setting": "[3]; first compound 1 µg/mL, partner 1.2 µg/mL", "value": 0.939},
      {"measurement": "fitness", "setting": "[3]; first compound 1 µg/mL, partner 2.4 µg/mL", "value": 0.94},
      {"measurement": "fitness", "setting": "[3]; first compound 1 µg/mL, partner 4.8 µg/mL", "value": 0.935},
      {"measurement": "fitness", "setting": "[3]; first compound 2 µg/mL, partner 1.2 µg/mL", "value": 0.944},
      {"measurement": "fitness", "setting": "[3]; first compound 2 µg/mL, partner 2.4 µg/mL", "value": 0.942},
      {"measurement": "fitness", "setting": "[3]; first compound 2 µg/mL, partner 4.8 µg/mL", "value": 0.953},
      {"measurement": "fitness", "setting": "[3]; first compound 4 µg/mL, partner 1.2 µg/mL", "value": 0.911},
      {"measurement": "fitness", "setting": "[3]; first compound 4 µg/mL, partner 2.4 µg/mL", "value": 0.899},
      {"measurement": "fitness", "setting": "[3]; first compound 4 µg/mL, partner 4.8 µg/mL", "value": 0.917},
      {"measurement": "fitness", "setting": "[4]; first compound 0.5 µg/mL, partner 0.15 µg/mL, one replicate", "value": 0.931},
      {"measurement": "fitness", "setting": "[4]; first compound 0.5 µg/mL, partner 0.3 µg/mL, one replicate", "value": 0.904},
      {"measurement": "fitness", "setting": "[4]; first compound 0.5 µg/mL, partner 0.6 µg/mL, one replicate", "value": 0.943},
      {"measurement": "fitness", "setting": "[4]; [5]", "value": 0.855},
      {"measurement": "fitness", "setting": "[4]; [6]", "value": 0.847},
      {"measurement": "fitness", "setting": "[4]; [7]", "value": 0.927},
      {"measurement": "fitness", "setting": "[4]; [8]", "value": 0.85},
      {"measurement": "fitness", "setting": "[4]; [9]", "value": 0.889},
      {"measurement": "fitness", "setting": "[4]; [10]", "value": 0.889},
      {"measurement": "fitness", "setting": "[4]; first compound 4 µg/mL, partner 0.15 µg/mL, one replicate", "value": "≥ 1"},
      {"measurement": "fitness", "setting": "[4]; first compound 4 µg/mL, partner 0.3 µg/mL, one replicate", "value": "≥ 1"},
      {"measurement": "fitness", "setting": "[4]; first compound 4 µg/mL, partner 0.6 µg/mL, one replicate", "value": 0.956}
    ]}
  ]
}
